Among the data in patent US20250230172A1 (Vanqua Bio, Inc., priority 2021, published 2025) are EC50 values, retold here.

The target of the assay is T1, GCase (Homo sapiens, UniProt P04062).
T1 construct: endogenous in cells; host or cells: HeLa cells
T1 sequence (P04062 40-536): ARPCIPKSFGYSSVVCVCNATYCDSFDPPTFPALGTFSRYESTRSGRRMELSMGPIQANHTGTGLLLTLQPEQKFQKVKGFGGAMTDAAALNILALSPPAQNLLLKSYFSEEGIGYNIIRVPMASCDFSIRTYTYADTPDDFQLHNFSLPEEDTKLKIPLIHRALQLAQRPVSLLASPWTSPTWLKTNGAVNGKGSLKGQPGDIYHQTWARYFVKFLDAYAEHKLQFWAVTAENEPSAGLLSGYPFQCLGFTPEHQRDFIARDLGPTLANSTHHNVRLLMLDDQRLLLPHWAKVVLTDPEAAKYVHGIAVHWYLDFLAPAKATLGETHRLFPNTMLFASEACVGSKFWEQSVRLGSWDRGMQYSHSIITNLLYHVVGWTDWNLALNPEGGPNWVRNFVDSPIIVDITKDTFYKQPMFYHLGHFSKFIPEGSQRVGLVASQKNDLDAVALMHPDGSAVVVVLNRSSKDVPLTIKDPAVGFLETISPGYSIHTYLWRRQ
Put plainly: live cell PFB assay in HELA cells for activation of GCase. The class given is cell-based. The protocol:
Exemplary compounds were evaluated for activation of GCase in a live cell PFB assay in HELA cells (essentially as described in Ysselstein et al., “LRRK2 kinase activity regulates lysosomal glucocerebrosidase in neurons derived from Parkinson's disease patients” Nature Communications (2019) 10:5570). […] EC50 ranges: A: <10 μM; B: >10-50 μM; C: >50-100 μM; D: >100 μM.

Some results are limits rather than exact numbers.

The compound `FC(F)(F)c1ccnc(N2C[C@H]3CCN(c4cnc5cnn(C6COC6)c5n4)C[C@H]3C2)c1` (racemic) [Compound 1] registered a concentration giving a half-maximal response (EC50) of less than 10 µM. `FC(F)Cn1ncc2ncc(N3CC[C@@H]4CN(c5cccnc5C(F)(F)F)C[C@@H]4C3)nc21` (racemic) [Compound 2, rac-3-[(3aR,7aS)-5-[1-(2,2-difluoroethyl)-1H-pyrazolo[3,4-b]pyrazin-6-yl]-octahydro-1H-pyrrolo[3,4-c]pyridin-2-yl]-2-(trifluoromethyl)pyridine] gave a 50% effective concentration (EC50) of less than 10 µM. Take `FC(F)Cn1ncc2ncc(N3CC[C@@H]4CN(c5cc(C(F)(F)F)ccn5)C[C@@H]4C3)nc21` (racemic) [Compound 3]: the half-maximal effective concentration (EC50) is less than 10 µM. Regarding `FC(F)Cn1ncc2ncc(N3C[C@H]4CCN(c5cccnc5C(F)(F)F)C[C@H]4C3)nc21` (racemic) [Compound 4, rac-3-[(3aR,7aR)-2-[1-(2,2-difluoroethyl)-1H-pyrazolo[3,4-b]pyrazin-6-yl]-octahydro-1H-pyrrolo[3,4-c]pyridin-5-yl]-2-(trifluoromethyl)pyridine], the concentration giving a half-maximal response (EC50) is less than 10 µM.

In turn, `FC(F)Cn1ncc2ncc(N3CC[C@@H]4CN(c5ncccc5C(F)(F)F)C[C@@H]4C3)nc21` (racemic) [Compound 5] yielded an EC50 of less than 10 µM. To `FC(F)Cn1ncc2ncc(N3C[C@H]4CCN(c5cccc(C(F)(F)F)n5)C[C@H]4C3)nc21` (racemic) [Compound 6] belongs less than 10 µM; to `FC(F)Cn1ncc2ncc(N3CC[C@@H]4CN(c5cccc(C(F)(F)F)n5)C[C@@H]4C3)nc21` (racemic) [Compound 7], less than 10 µM. In turn, `FC(F)Cn1ncc2ncc(N3CC[C@@H]4CN(c5ccc(C(F)(F)F)cn5)C[C@@H]4C3)nc21` (racemic) [Compound 8] returned a concentration giving a half-maximal response (EC50) of less than 10 µM.

For the compound `O=C(c1ccc2ccn(CC3COC3)c2c1)N1CC[C@@H]2CN(c3cc(C(F)(F)F)ccn3)C[C@@H]2C1` (racemic) [Compound 9, rac-6-[(3aR,7aS)-2-[4-(trifluoromethyl)pyridin-2-yl]-octahydro-1H-pyrrolo[3,4-c]pyridine-5-carbonyl]-1-[(oxetan-3-yl)methyl]-1H-indole], the 50% effective concentration (EC50) fell in the range of 10 to 50 µM. Regarding `FC(F)Cn1ncc2ncc(N3CC[C@@H]4CN(c5cncc(C(F)(F)F)c5)C[C@@H]4C3)nc21` (racemic) [Compound 10, rac-3-[(3aR,7aS)-5-[1-(2,2-difluoroethyl)-1H-pyrazolo[3,4-b]pyrazin-6-yl]-octahydro-1H-pyrrolo[3,4-c]pyridin-2-yl]-5-(trifluoromethyl)pyridine], the concentration for a half-maximal effect (EC50) was 10 to 50 µM. For the compound `FC(F)Cn1ncc2ncc(N3C[C@H]4CCN(c5cc(C(F)(F)F)ccn5)C[C@H]4C3)nc21` (racemic) [Compound 11], the concentration for a half-maximal effect (EC50) fell in the range of 10 to 50 µM.

The compound `FC(F)Cn1ncc2ncc(N3CC[C@@H]4CN(c5ccc(C(F)(F)F)nc5)C[C@@H]4C3)nc21` (racemic) [Compound 12, rac-5-[(3aR,7aS)-5-[1-(2,2-difluoroethyl)-1H-pyrazolo[3,4-b]pyrazin-6-yl]-octahydro-1H-pyrrolo[3,4-c]pyridin-2-yl]-2-(trifluoromethyl)pyridine] registered an EC50 of 10 to 50 µM. The compound `FC(F)(F)Cn1ncc2ncc(N3CC[C@@H]4CN(c5cc(C(F)(F)F)ccn5)C[C@@H]4C3)nc21` (racemic) [Compound 13] yielded a concentration for a half-maximal effect (EC50) of 10 to 50 µM. Turning to `FC(F)Cn1ncc2ncc(N3C[C@H]4CCN(c5cncc(C(F)(F)F)c5)C[C@H]4C3)nc21` (racemic) [Compound 14, rac-3-[(3aR,7aR)-2-[1-(2,2-difluoroethyl)-1H-pyrazolo[3,4-b]pyrazin-6-yl]-octahydro-1H-pyrrolo[3,4-c]pyridin-5-yl]-5-(trifluoromethyl)pyridine], the EC50 is 10 to 50 µM. Compound `FC(F)Cn1ncc2ncc(N3CC[C@@H]4CN(c5cnccc5C(F)(F)F)C[C@@H]4C3)nc21` (racemic) [Compound 15, rac-3-[(3aR,7aS)-5-[1-(2,2-difluoroethyl)-1H-pyrazolo[3,4-b]pyrazin-6-yl]-octahydro-1H-pyrrolo[3,4-c]pyridin-2-yl]-4-(trifluoromethyl)pyridine] had an EC50 of 10 to 50 µM. In turn, `O=C(c1ccc2ccn(C3COC3)c2c1)N1CC[C@@H]2CN(c3cc(C(F)(F)F)ccn3)C[C@@H]2C1` (racemic) [Compound 16, rac-6-[(3aR,7aS)-2-[4-(trifluoromethyl)pyridin-2-yl]-octahydro-1H-pyrrolo[3,4-c]pyridine-5-carbonyl]-1-(oxetan-3-yl)-1H-indole] showed an EC50 of 10 to 50 µM. The compound `FC(F)Cn1ncc2ncc(N3C[C@H]4CCN(c5ncccc5C(F)(F)F)C[C@H]4C3)nc21` (racemic) [Compound 17] registered a concentration giving a half-maximal response (EC50) of 10 to 50 µM.

Compound `FC(F)Cn1ncc2ncc(N3C[C@H]4CCN(c5ccc(C(F)(F)F)cn5)C[C@H]4C3)nc21` (racemic) [Compound 18] yielded an EC50 of 10 to 50 µM. Next, `FC(F)(F)c1ccnc(N2C[C@H]3CCN(c4cncc(-c5nncs5)n4)C[C@H]3C2)c1` (racemic) [Compound 19, rac-2-[(3aR,7aS)-2-[4-(trifluoromethyl)pyridin-2-yl]-octahydro-1H-pyrrolo[3,4-c]pyridin-5-yl]-6-(1,3,4-thiadiazol-2-yl)pyrazine]: greater than 100 µM; `FC(F)Cn1ncc2ncc(N3C[C@H]4CCN(c5ccc(C(F)(F)F)nc5)C[C@H]4C3)nc21` (racemic) [Compound 20, rac-5-[(3aR,7aR)-2-[1-(2,2-difluoroethyl)-1H-pyrazolo[3,4-b]pyrazin-6-yl]-octahydro-1H-pyrrolo[3,4-c]pyridin-5-yl]-2-(trifluoromethyl)pyridine]: 10 to 50 µM; `FC(F)Cn1ncc2ncc(N3CC[C@@H]4CN(c5ccnc(C(F)(F)F)c5)C[C@@H]4C3)nc21` (racemic) [Compound 21, rac-4-[(3aR,7aS)-5-[1-(2,2-difluoroethyl)-1H-pyrazolo[3,4-b]pyrazin-6-yl]-octahydro-1H-pyrrolo[3,4-c]pyridin-2-yl]-2-(trifluoromethyl)pyridine]: less than 10 µM. Consider `FC(F)Cn1ncc2ncc(N3C[C@H]4CCN(c5ccncc5C(F)(F)F)C[C@H]4C3)nc21` (racemic) [Compound 22, rac-4-[(3aR,7aR)-2-[1-(2,2-difluoroethyl)-1H-pyrazolo[3,4-b]pyrazin-6-yl]-octahydro-1H-pyrrolo[3,4-c]pyridin-5-yl]-3-(trifluoromethyl)pyridine], for which the EC50 was less than 10 µM. For the compound `FC(F)Cn1ncc2ncc(N3C[C@H]4CCN(c5ccnc(C(F)(F)F)c5)C[C@H]4C3)nc21` (racemic) [Compound 23, rac-4-[(3aR,7aR)-2-[1-(2,2-difluoroethyl)-1H-pyrazolo[3,4-b]pyrazin-6-yl]-octahydro-1H-pyrrolo[3,4-c]pyridin-5-yl]-2-(trifluoromethyl)pyridine], the EC50 lay in the range of 10 to 50 µM. To `FC(F)Cn1ncc2ncc(N3C[C@H]4CCN(c5cnccc5C(F)(F)F)C[C@H]4C3)nc21` (racemic) [Compound 24, rac-3-[(3aR,7aR)-2-[1-(2,2-difluoroethyl)-1H-pyrazolo[3,4-b]pyrazin-6-yl]-octahydro-1H-pyrrolo[3,4-c]pyridin-5-yl]-4-(trifluoromethyl)pyridine] belongs 10 to 50 µM. Next, `FC(F)Cn1ncc2ncc(N3CC[C@@H]4CN(c5ccncc5C(F)(F)F)C[C@@H]4C3)nc21` (racemic) [Compound 25]: greater than 100 µM; `FC(F)Cn1ncc2ncc(N3C[C@@H]4CN(c5cc(C(F)(F)F)ccn5)C[C@H]4C3)nc21` (racemic) [Compound 44, rac-2-[(3aR,6aR)-5-[1-(2,2-difluoroethyl)-1H-pyrazolo[3,4-b]pyrazin-6-yl]-octahydropyrrolo[3,4-c]pyrrol-2-yl]-4-(trifluoromethyl)pyridine]: greater than 100 µM; `FC(F)Cn1ncc2ncc(N3C[C@@H]4CN(c5cccc(C(F)(F)F)n5)C[C@H]4C3)nc21` (racemic) [Compound 46, rac-2-[(3aR,6aR)-5-[1-(2,2-difluoroethyl)-1H-pyrazolo[3,4-b]pyrazin-6-yl]-octahydropyrrolo[3,4-c]pyrrol-2-yl]-6-(trifluoromethyl)pyridine]: 50 to 100 µM.

On to `FC(F)Cn1ncc2ncc(N3C[C@@H]4CN(c5ccc(C(F)(F)F)nc5)C[C@H]4C3)nc21` (racemic) [Compound 48, rac-5-[(3aR,6aR)-5-[1-(2,2-difluoroethyl)-1H-pyrazolo[3,4-b]pyrazin-6-yl]-octahydropyrrolo[3,4-c]pyrrol-2-yl]-2-(trifluoromethyl)pyridine], for which the concentration for a half-maximal effect (EC50) lay in the range of 10 to 50 µM. Next, `FC(F)Cn1ncc2ncc(N3C[C@@H]4CN(c5cccnc5C(F)(F)F)C[C@H]4C3)nc21` (racemic) [Compound 50, rac-3-[(3aR,6aR)-5-[1-(2,2-difluoroethyl)-1H-pyrazolo[3,4-b]pyrazin-6-yl]-octahydropyrrolo[3,4-c]pyrrol-2-yl]-2-(trifluoromethyl)pyridine]: less than 10 µM.
